This is an account of results in patent US20150260740A1, “COMPOSITION FOR USE AS AN ABNORMAL COAGULATION CONTROL PLASMA IN IN VITRO ASSAYS” (GRIFOLS, S.A., priority 2014, published 2015).

Holding throughout (assay type): biochemical
In assay [1] the test system is citrated normal human plasma. The experiment in a line: prothrombin time (PT) haemostasis assay. Conditions: for effect on percentage of PT activity versus plasma having no anticoagulant: anticoagulant added to normal plasma: ferulic acid 0.5%, 1%, 1.5%, heparin 0.1, 0.5, 1 IU/mL, EDTA 0.5, 1, 1.5 mg/mL, FIG. 1-3; for effect on PT assay: summary statement, added to normal plasma, concentration not stated (EDTA: at a certain concentration). How it is done: (§1) To assess the effect of different anticoagulants in various haemostasis assays, different plasma compositions were prepared. Use was made of citrated normal human plasma (16 mM of citrate), stored at a temperature of below −70° C. and thawed in a bath at 37° C. HEPES was then added up to a final concentration of 40 mM and the pH was adjusted to between 7.4 and 7.6 using NaOH 1N. Various plasma compositions were prepared. No anticoagulant was added to the first composition, which was used as a control. Increasing concentrations of the anticoagulants being analysed were added to the others: ferulic acid (0.5% , 1% and 1.5%), heparin (0.1 IU/mL, 0.5 IU/mL and 1 IU/mL) and EDTA (0.5 mg/mL, 1 mg/mL, 1.5 mg/mL). Each plasma composition was analysed for the aforementioned PT, aPTT, TT and RT assays in a Q Haemostasis Analyzer (Diagnostic Grifols, Spain) using the reagents DG-PT, DG-APTT Synth, DG-TT L Human and GD-Fibroclotin of Diagnostic Grifols.
FIG. 1-3 show the results obtained in the PT assay with the various anticoagulants and plot the time obtained in the PT assay as a function of the concentration of the anticoagulant present in the plasma. The control (plasma having no anticoagulant) is shown by triangles and the compositions comprising ferulic acid, heparin and EDTA are shown by squares. […] On the other hand, ferulic acid and EDTA added to normal plasma do produce a reduction in the percentage of PT activity.

For assay [2], the system named is citrated normal human plasma. The experiment in a line: thrombin time (TT) haemostasis assay. Particulars: for effect on TT assay result versus plasma having no anticoagulant: anticoagulant added to normal plasma: ferulic acid 0.5%, 1%, 1.5%, heparin 0.1, 0.5, 1 IU/mL, EDTA 0.5, 1, 1.5 mg/mL, FIG. 7-9. How it is done:
as §1
The same plasmas prepared in Example 1 were tested in the TT assay. FIG. 7-9 show the TT results obtained when testing the prepared plasmas.

Assay [3] deals with citrated normal human plasma. The experiment in a line: reptilase time (RT) haemostasis assay. Particulars: for effect on RT assay result versus plasma having no anticoagulant: anticoagulant added to normal plasma: ferulic acid 0.5%, 1%, 1.5%, heparin 0.1, 0.5, 1 IU/mL, EDTA 0.5, 1, 1.5 mg/mL, FIG. 10-12; for effect on RT assay: summary statement, added to normal plasma, concentration not stated (EDTA: at a certain concentration). How it is done:
as §1
The same plasmas prepared in Example 1 were tested in the RT assay.

The test system of assay [4] is citrated normal human plasma. Nature of the assay: activated partial thromboplastin time (aPTT) haemostasis assay. Conditions: summary statement, added to normal plasma; concentration not stated (EDTA: at a certain concentration). How it is done: as §1
The same plasmas prepared in Example 1 were tested in the aPTT assay (FIG. 4-6). […] In addition, the prolongation in the result of the assay is proportional to the amount of anticoagulant present in the plasma.

Consider `COc1cc(/C=C/C(=O)O)ccc1O` [ferulic acid], for which the “effect on percentage of PT activity versus plasma having no anticoagulant” value in assay [1] was “produce a reduction in the percentage of PT activity that is proportional to the amount of anticoagulant present in the plasma”. Moreover, the “effect on TT assay result versus plasma having no anticoagulant” value in assay [2] is recorded as “do produce an abnormal TT”. Also, the “effect on RT assay result versus plasma having no anticoagulant” value in assay [3] is listed as “do produce an abnormal RT result”.

On to `O=C(O)CN(CCN(CC(=O)O)CC(=O)O)CC(=O)O` [EDTA, ethylenediaminetetraacetic acid], for which, in assay [1], the “effect on percentage of PT activity versus plasma having no anticoagulant” value is “produce a reduction in the percentage of PT activity that is proportional to the amount of anticoagulant present in the plasma”; the “effect on PT assay” value was “does not affect the results of PT, aPTT and TT assays, or does so very slightly”. Besides, the “effect on aPTT assay” value in assay [4] is “does not affect the results of PT, aPTT and TT assays, or does so very slightly”. Moreover, the “effect on TT assay result versus plasma having no anticoagulant” value in assay [2] is recorded as “does not prolong the result of the assay”. Further, the “effect on TT assay” value in assay [2] (summary statement, added to normal plasma, EDTA at a certain concentration) is “does not affect the results of PT, aPTT and TT assays, or does so very slightly”. In assay [3], the “effect on RT assay result versus plasma having no anticoagulant” value is “do produce an abnormal RT result” and the “effect on RT assay” value is given as “can prolong the RT assay”.

With heparin, in assay [1], the “effect on percentage of PT activity versus plasma having no anticoagulant” value is on record as “has no effect on the PT assay” and the “effect on PT assay” value is listed as “does not affect the PT assay, or does so to a lesser extent”. Also, in assay [4], the “effect on aPTT assay” value is “prolongs the aPTT assay”. For the same compound, the “effect on TT assay result versus plasma having no anticoagulant” value in assay [2] is listed as “do produce an abnormal TT”. For the same compound, in assay [3], the “effect on RT assay result versus plasma having no anticoagulant” value was “does not prolong the RT at any of the concentrations tested” and the “effect on RT assay” value is reported as “does not prolong the RT assay”.
